In experiment [1] the test system is adult T. vaporariorum; White Fly (Aleyrodidae). The experiment in a line: Methamidophos/EPAC-I on adult whitefly on tomato. The experiment is classed as in vivo, Trialeurodes vaporariorum. More on the design: concentration or dose not given beside the values. As to conditions: tomato crops. Here is the method:
The effectiveness of EPAC-I was assessed with adult T. vaporariorum under experimental conditions taking into account the percentage of mortality by direct and indirect contact with the insects.
The completion of the performance test EPAC-I with adults of T. vaporariorum was carried out directly on whitefly adults collected from breeding individuals in the “Bio-Systems Center”. These were placed in a box with mesh which allows passage of the droplets in the spray. Product application was performed with an airbrush at a distance of 30 cm and a 45° angle on the application unit, achieving a uniform coverage with fine droplets. The quality was verified through application of a strip (2×2 cm) of water-sensitive paper.
To assemble the test, from tomato plants we selected randomly 5 leaflets per treatment and then were sprayed and once dried, in each bags mesh were placed into which 10 adults whiteflies were placed, and each of these units was duly marked according to the assessed treatment. Tomato plants with the evaluation units were maintained in a room with controlled temperature (20±1° C.), relative humidity (70±10%) and photoperiod of 12 h. The evaluation design was completely randomized and readings from day one after application to day 10 were performed.

Experiment [2] concerns Paja de Zorro (Leptochloa filiformis). The experiment in a line: Field trial clomazone +/- EPAC, weed control in rice fields. It is filed as in vivo.
Experiment [3] concerns Coffe Borer Beetle. As to the kind of experiment: Field trial chlorpyrifos +/- EPAC, pest control in coffee fields. The experiment is classed as in vivo.
For experiment [4], the system named is Bledo (Amaranthus Albus). The experiment in a line: Field trial oxadiazone +/- EPAC, weed control in rice fields. The experiment is classed as in vivo.
Experiment [5] deals with Falsa Caminadora (Ischaemum rugosum). The experiment in a line: Field trial pendimethalin +/- EPAC, weed control in rice fields. It is filed as in vivo.
The subject of experiment [6] is White Fly (Aleyrodidae). The experiment in a line: Field trial cypermethrin +/- EPAC, pest control in tomato crops. It is filed as in vivo.
The subject of experiment [7] is Corn. As to the kind of experiment: Field trial paraquat +/- EPAC, crop dissecation. The experiment is classed as in vivo. The settings on record: A = 100% alone, B = 40% + EPAC 4%.
The subject of experiment [8] is Coquito (Cyperus rotundus). As to the kind of experiment: Field trial atrazine +/- EPAC, weed control in corn. It is filed as in vivo.
Experiment [9] deals with Piñita (Murdania Nudiflora). The experiment in a line: Field trial glyphosate +/- EPAC, weed control in rice. As to conditions: A = chemical alone at 100%, B = reduced dose + EPAC. It is filed as in vivo.
Experiment [10] relates to Leptocloa. The description is as above. The experiment is classed as in vivo. As to conditions: A = 100% alone, B = reduced dose + EPAC.
Experiment [11] has as its system Guardarocio (Digitaria Sanguinalis). The experiment is described as above. As to conditions: A = 100% alone, B = reduced dose + EPAC. The experiment is classed as in vivo.
Experiment [12] deals with Cortadera (Cortaderia Selloana). Described as above. It is filed as in vivo. The settings on record: A = 100% alone, B = reduced dose + EPAC.
In experiment [13] the test system is Liendrepuerco (Echinochia Colonum). Described as above. It is filed as in vivo. As to conditions: A = 100% alone, B = reduced dose + EPAC.
Experiment [14] deals with Mycosphaerella fijiensis. As to the kind of experiment: Sensitivity test of ascospores (germination, germ tube elongation) to azoxystrobin +/- EPAC-F. The experiment is classed as cell-based. As to conditions: Black Sigatoka, banana crops. Here is the method: In a study in experimental conditions the effectiveness of EPAC-F was evaluated by a sensitivity test to Mycosphaerella fijiensis (from a banana farm in Santa Marta), causal agent of Black Sigatoka, following the recommendations of the Fungicide Resistance Action Committee's (FRAC) to strobilurin fungicides from.
The test is based on measuring the length elongation ascospore germ tube that germinated in culture medium 2% agar, modified with a number of products made by mixing the adjuvant, EPAC-F and fungicide Liege 25 SC, whose active ingredient is Azoxystrobin 250 g/L. Then the following 11 treatments were evaluated are as follows:
T1. Azoxystrobin 25% SC 100 at a dose of 400 cc/Ha. T2. Azoxystrobin 25 SC 50% at doses of 400 cc/Ha.+EPAC 10% T3. Azoxystrobin 25 SC 50% at doses of 400 cc/Ha.+EPAC 20% T4. Azoxystrobin 25 SC 70% at doses of 400 cc/Ha.+EPAC 10% T5. Azoxystrobin 25 SC 60% at doses of 400 cc/Ha.+EPAC 10% T1A. Azoxystrobin SC 25 50% at doses of 200 cc/Ha.+EPAC5% T2A. Azoxystrobin SC 25 50% at doses of 200 cc/Ha.+10% EPAC T3A. Azoxystrobin SC 25 50% at doses of 200 cc/Ha.+15% EPAC T4A. Azoxystrobin SC 25 25% at doses of 200 cc/Ha.+10% EPAC T5A. Azoxystrobin SC 25 25% at doses of 200 cc/Ha.+15% EPAC
The control process involved the use of fungicide Amystar 50 WG with the active ingredient Azoxystrobin 500 g/L. This product is considered direct competition from […]. […]

The test system of experiment [15] is White Fly (Aleyrodidae). As to the kind of experiment: Field trial profenophos +/- EPAC, pest control in tomato crops. The experiment is classed as in vivo.
The test system of experiment [16] is Paja de Zorro (Leptochloa filiformis). The experiment in a line: Field trial butachlor +/- EPAC, weed control. The experiment is classed as in vivo. The settings on record: butachlor section.

Turning to `COP(N)(=O)SC` (stereo not shown) [Metamidhophos, O, S-dimethyl-phosphoramidothioate], the “% of Pest Controlled” value in experiment [1] (1 Day) is reported as 10%; in [1] (4 Days) it was 30%; in experiment [1] (6 Days), 42%; in experiment [1] (8 Days), 46%; in experiment [1] (10 Days), 50%.
Regarding `CC1(C)CON(Cc2ccccc2Cl)C1=O` [Clomazone], the “% of Weeds Controlled” value is reported as 97% in experiment [2] (3 Days), 93% in experiment [2] (8 Days) and 100% in experiment [2] (15 Days).
In the case of `CCOP(=S)(OCC)Oc1nc(Cl)c(Cl)cc1Cl` [Chlorpyrifos], the “% of Pest Controlled” value in [3] (7 Days) is reported as 88%; in experiment [3] (14 Days) it was 83%; in [3] (21 Days), 73%.
As for `CC(C)Oc1cc(-n2nc(C(C)(C)C)oc2=O)c(Cl)cc1Cl` [Oxadiazone], the figures for the “% of Weeds Controlled” value in experiment [4] (3 Days), in [4] (8 Days) and in [4] (15 Days) were 87%, 97% and 100%, respectively.
On to `CCC(CC)Nc1c([N+](=O)[O-])cc(C)c(C)c1[N+](=O)[O-]` [Pendimenthaline], for which the “% of Weeds Controlled” value in experiment [5] (3 Days) is reported as 86.7%; in experiment [5] (8 Days) it was 96.7%; in experiment [5] (15 Days), 93%.
In the case of `CC1(C)C(C=C(Cl)Cl)C1C(=O)OC(C#N)c1cccc(Oc2ccccc2)c1` (stereo not shown) [Cypermethrin], the “% of Pest Controlled” value in experiment [6] (3 Days) was found to be 90%; in experiment [6] (8 Days), 87%; in experiment [6] (15 Days), 76%.
For `C[n+]1ccc(-c2cc[n+](C)cc2)cc1` [Paraquat], the “% of Crop Dissecated” value in [7] was 100%.
In the case of `CCNc1nc(Cl)nc(NC(C)C)n1` [Atrazine], the results for the “% of Weeds Controlled” value in experiment [8] (7 Days), in experiment [8] (14 Days) and in experiment [8] (21 Days) were 93%, 90% and 90%, respectively.
For `O=C(O)CNCP(=O)(O)O` [Glyphosate, N-phosphonomethyl-glycine], the “% of Weeds Controlled” value amounted to 83% in experiment [9]; 100% in [10]; 82% in experiment [11]; 90% in [12]; 93% in [13].
As to `CO/C=C(\C(=O)OC)c1ccccc1Oc1cc(Oc2ccccc2C#N)ncn1` [Axozystrobin], in [14], the “Fungus Inhibition: % Ascospore Germination Inhibited” value turned out to be 24% and the “Fungus Inhibition: % Ascospore elongation Inhibition (>150 microm)” value is 37%.
Turning to `CCCSP(=O)(OCC)Oc1ccc(Br)cc1Cl` (stereo not shown) [Profenophos], the “% of Pest Controlled” value amounted to 92% in experiment [15] (7 Days), 82% in [15] (12 Days) and 75% in [15] (15 Days).
Turning to `CCCCOCN(C(=O)CCl)c1c(CC)cccc1CC` [Butachlor], the “% of Weeds Controlled” value in [16] (3 Days) stood at 93%; in experiment [16] (8 Days), 100%; in [16] (15 Days), 100%.

The record behind these values is patent publication US20170079278A1 (priority 2015, published 2017).
